From patent US6239284A, “Aromatic tetracyclic compounds of the retinoid type method for preparing and use” (priority 1997, dated 2001)
“Also recorded” adds a separate entry of the source. Read-outs that look alike come from different tables or passages of the source.

Legend:
AP-1 = assay: Anti-AP-1 effect, MTLN cellular lineage (MCF-7 with (TRE)3-tk-Luc) activated by TPA; format: cell-based, human; settings: for Anti-AP-1 effect, Inhibition (%): 10^-7 M TPA, range of several experiments; for inhibition at 1 µM: Homo sapiens, AP1, read-out: Inhibition of AP-1 route (MTLN)
Protocol: The anti-factor AP-1 transrepressor effect of retinoids is determined using the MTLN lineage, coming from MCF-7 cells transfected in a stable fashion by a vector p(TRE)3 -tk-Luc which places the expression of the gene of luciferase under the control of […]. TPA activates the AP-1 complex formed from proteins of the family of nuclear proto-oncogenes (c-Jun and c-Fos). […] The experiments ware made with the MTLN cells activated by 10^-7 M TPA.
The effect of the compounds on the MTLN cells activated by 10^-7 M TPA is expressed as a percentage. […] The inhibitive properties of the products are calculated after deduction of the base activity of the cells. The percentages reported correspond to a range of inhibitions determined from several experiments.

ERE = assay: Anti-estrogenic effect, MELN cellular lineage (MCF-7 with ERE-βGlob-Luc) activated by estradiol; format: cell-based, human
Protocol: MCF-7 cells express RARα,γ and RXRα. The transfection of MCF-7 cells by an estrogen-dependent gene (ERE-βGlob-Luc) has permitted the establishment of the MELN cellular lineage, used to determine the anti-oestrogenic activity of the retinoids. These cells contain the gene of the luciferase under the transcriptional control of the promoter of the βGlobine and of the response element ERE isolated from the gene of chicken vitelogenine A2. The experiments are carried out with MELN cells activated by 10^-9 M estradiol. The level of base activity of the MELN cells is obtained with the anti-estrogen 1 μM 4-OH-tamoxifen (hydroxytamoxifen).
The effect of the products tested on the cells activated by 10^-9 M estradiol is expressed as a percentage, the level of base activity being deducted.

MCF-7 cells = assay: Anti-proliferation effect, estrogen-induced growth of MCF-7 cells; format: cell-based, human; settings: for Effect on growth of MCF-7 cells in words: estrogenic conditions
Protocol: (§1) So as to test the anti-proliferation effect of the retinoids, growth experiments under oestrogenic conditions were carried out on cells MCF-7 and T-47D. These are the human estrogen-dependent mammary cancer cells which express the receptor to RE estrogens. The effect of the molecules is evaluated after 7 days of culture in oestrogenic conditions (estradiol 10^-9 M) by dosing the cellular DNA. The cells are distributed in 24 well plates at a density of 2×10^4 cells per well. The tests with the different retinoids are carried out in triplicate and the culture medium is changed after 4 days of growth.
(§2) The effect of the retinoids on the growth of MCF-7 and T-47D cells is evaluated after 7 days of culture in the presence of 10^-9 M estradiol by dosing the cellular DNA.

T-47D cells = assay: Anti-proliferation effect, estrogen-induced growth of T-47D cells; format: cell-based, human; settings: for Effect on growth of T-47D cells in words: estrogenic conditions
Protocol: as §1, §2

RARE [1] = assay: HRLN transactivation (stably transfected HeLa, RARE3-tk-Luc, endogenic receptors); format: cell-based
Source text: (§3) The cellular lineages HRLN and HRL+N allow one to study the activation of an RARE by endogenic receptors using ligands at physiological concentrations. These lineages derive from HeLa cells transfected in a stable fashion by a reporter gene which places the expression of the gene of the luciferase under the control of a nuclear response element RARE (RARE3 -tk-Luc). The HeLa cells express all the known receptors of the retinoic acid (RARα,β,γ and RXRα,β,γ) with a predominance of RARα and RXRα. The response element RARE used for the HRLN cells corresponds to the sequence of the natural gene of the RARβ receptor (GGTTCAnnnnnAGTTCA). The HRL+N cells comprise the sequence GAGTGAnnnnnCGGTGA.

RARα [2] = assay: Transactivation of chimerical receptor RARα-ERcassette, transient transfection of HeLa cells; format: cell-based; settings: for RAR-ERcassette RARα transactivation (%): 100% = TTNPB 10^-8 M
Source text: (§4) The HeLa cells are co-transfected by a plasmid which codes for a retinoic receptor in which the C domain of bonding to the DNA is substituted by that of the receptor to RE estrogens, and a plasmid which places the expression of the luciferase under the control of an ERE (Element of Response to Estrogens). The expressed chimerical receptors are designated as RARα-ERcassette, RARβ-ERcassette, RARγ-ERcassette and RXRα-ERcassette. The A, B, D, E and F regions of the natural receptor are preserved as well as the transcriptional co-operation between the activation domains AF-1 and AF-2. These transitory transfection experiments follow the method of co-precipitation to calcium phosphate. The HeLa cells are co-transfected by […] of plasmid coding for the chimerical receptor, […] of reporter plasmid and […] of expression vector CMV-β-galactosidase used as an internal control of transfection. 24 hours after the transfection, the cells are incubated for 16 hours with the different effectors.
(§5) In this type of chimerical receptor, the C domain of bonding to the DNA of RAR is substituted by that of the receptor to the RE estrogens. The protein obtained is close to the natural RAR receptor and preserves the transcriptional properties of the AF-1 and AF-2 domains. It modulates the transcription by means of an ERE. This RAR-ERcassette model allows one to observe a transcriptional response to a more physiological ligand.
(§6) The study of the selectivity of the compounds was carried out with the RAR-ERcassette chimerical receptors model.
(§7) On one and the same line in the Table, the cis (Z) compound represents the isomeric structure of the trans (E) compound.

RARE [3] = assay: HRL+N transactivation (stably transfected HeLa, RARE reporter, endogenic receptors); format: cell-based; settings: for activation at 1 µM: Table 12
Source text: as §3
The HRL+N lineage allows one to visualize a co-activation of the RAR and RXR receptors at the level of the RAR-RXR hetero-dimer.

RARγ [4] = assay: Transactivation of chimerical receptor RARγ-ERcassette, transient transfection of HeLa cells; format: cell-based; settings: 100% = TTNPB 10^-8 M
Source text: as §4, §5, §6, §7

RAR [5] = assay: RAR-ERcassette model, specificity profile (transient transfection of HeLa cells); format: cell-based
Source text: as §4, §5, §6

RARβ [6] = assay: Transactivation of chimerical receptor RARβ-ERcassette, transient transfection of HeLa cells; format: cell-based; settings: for RAR-ERcassette RARβ transactivation (%): 100% = TTNPB 10^-8 M
Source text: as §4, §5, §6, §7

RARγ [7] = assay: Transactivation of chimerical receptor GAL4-RARγ, transient transfection of HeLa cells (luciferase)
Source text: (§8) Studies of the transactivational specificity of the retinoids have been carried out by transitory transfection of HeLa cells. Two types of chimerical receptors can then be expressed by the cells. […] The C region (domain of bonding to the DNA) and the A and B regions (AF-1 activation domain) are suppressed.
(§9) These chimerical receptors activated by an agonist specifically stimulate the transcription of the gene of the luciferase present in a co-transfected plasmid ((17M)5-βG-Luc) where 17M is the response element of Gal4.

RAR [8] = assay: GAL-RAR model, specificity profile (transient transfection of HeLa cells)
Source text: as §8, §9

RARβ [9] = assay: Transactivation of chimerical receptor GAL4-RARβ, transient transfection of HeLa cells (luciferase)
Source text: as §8, §9

RARα [10] = assay: Transactivation of chimerical receptor GAL4-RARα, transient transfection of HeLa cells (luciferase)
Source text: as §8, §9

[11] = Homo sapiens, read-out: Anti-oestrogenic effect, Inhibition (%)
[12] = Homo sapiens, -6 log M (10^-6 M), 10^-9 M estradiol, read-out: Anti-oestrogenic effect, Inhibition (%)

Compound	Anti-AP-1 effect, Inhibition (%) (AP-1; -7 log M)	Anti-AP-1 effect, Inhibition (%) (AP-1; -8 log M)	RAR-ERcassette RARα transactivation (%) (RARα [2]; -6 log M (1 μM))	Anti-AP-1 effect (MTLN) in words (AP-1)	inhibition at 1 µM (AP-1) [%]	HRL+N transactivation in words (RARE [3])	activation at 1 µM (RARE [3]; Homo sapiens, HeLa) [%]	RAR-ERcassette RARγ transactivation (%) (RARγ [4]; -6 log M (1 μM))	RAR-ERcassette profile in words (RAR [5])	inhibition at 1 µM (ERE; [12]) [%]	RAR-ERcassette RARβ transactivation (%) (RARβ [6]; -6 log M (1 μM))	Effect on growth of MCF-7 cells in words (MCF-7 cells)	Effect on growth of T-47D cells in words (T-47D cells)	RARβ transactivation (RAR-ERcassette) in words (RARβ [6])	GAL4-RARγ activity, % of activity measured for 10^-8 M TTNPB (RARγ [7]; Concentration -6 (log M)) [%]	GAL4-RARγ activity, % of activity measured for 10^-8 M TTNPB (RARγ [7]; Concentration -7 (log M)) [%]	GAL4-RARγ activity, % of activity measured for 10^-8 M TTNPB (RARγ [7]; Concentration -8 (log M)) [%]	GAL-RAR agonist profile in words (RAR [8])	GAL4-RARβ activity, % of activity measured for 10^-8 M TTNPB (RARβ [9]; Concentration -7 (log M)) [%]	GAL4-RARβ activity, % of activity measured for 10^-8 M TTNPB (RARβ [9]; Concentration -8 (log M)) [%]	further results
CC1(C)CCC(C)(C)c2cc(C(=O)Nc3ccc(C(=O)O)cc3)ccc21 [Am580, 4-[(5,6,7,8-tetrahydro-5,5,8,8-tetramethyl-2-naphthalenyl)carboxamido]benzoic acid]	41-48%	40-46%	–	–	–	–	–	–	–	–	–	–	–	–	–	–	–	–	–	–	inhibition at 0.01 µM (ERE; Homo sapiens, -8 log M, 10^-9 M estradiol, read-out: Anti-oestrogenic effect, Inhibition (%)): 36 to 51%; inhibition at 1 µM (MCF-7 cells; Homo sapiens, MCF7, 168 h, at 1 μM, 7 days, estradiol 10^-9 M, read-out: MCF-7 percentage inhibition of growth): 67%; inhibition at 1 µM (T-47D cells; Homo sapiens, T47D, 168 h, at 1 μM, 7 days, estradiol 10^-9 M, read-out: T-47D percentage inhibition of growth): 74%
C/C(=C\c1ccc(C(=O)O)cc1)c1ccc2c(c1)C(C)(C)CCC2(C)C [TTNPB]	29-54%	26-53%	–	–	–	–	–	–	–	–	–	–	–	–	–	–	–	–	–	–	EC50 (RARE [1]; Homo sapiens, HeLa, read-out: HRLN transactivation EC50): 0.55 ± 0.72 nM; inhibition at 0.01 µM (ERE; [11]): 30 to 41%; Inhibition in MELN (ERE; RAR selective molecules, 10^-9 M estradiol): ~40%; IC50 (MCF-7 cells; Homo sapiens, MCF7, 168 h, read-out: MCF-7 IC50 (growth inhibition by 50%)): 0.35 ± 0.07 nM; IC50 (T-47D cells; Homo sapiens, T47D, 168 h, read-out: T-47D IC50 (growth inhibition by 50%)): 3.3 ± 1.1 nM
Cc1cc2c(cc1/C=C1/CCc3cc(-c4nnn[nH]4)ccc31)C(C)(C)CCC2(C)C [CB02981, (Z) 5-[1-[2-(5,6,7,8-tetrahydro-3,5,5,8,8-pentamethyl)naphthalenylmethylene]-2,3-dihydro-1H-indenyl]-1H-tetrazole]	–	–	4	in association with a RXR agonist, an additive effect of the inhibiting effects of the two molecules is observed; also recorded: dissociating compound and causes inhibition of the AP-1 ring	~20	does not cause transactivation mediated by RAR and RXR	0	0	inactive	0	7	no effect whatsoever	no effect whatsoever	–	–	–	–	–	–	–	HRLN transactivation in words (RARE [1]): inactive; activation at 1 µM (RARE [1]; Homo sapiens, HeLa): 0%
Cc1cc2c(cc1/C=C1/CCc3cc(C(=O)O)ccc31)C(C)(C)CCC2(C)C [CB75403, (Z) 1-[2-(5,6,7,8-tetrahydro-3,5,5,8,8-pentamethyl)naphthalenylmethylene]-2,3-dihydro-1H-indene-5-carboxylic acid]	–	–	12	–	~30	–	18	68	RARβ,γ specificity; also recorded: RARβ,γ selectivity	0	65	–	–	same level of transactivation through the intermediary of RARβ at 0.1 μM and at 1 μM and also at 3 μM	–	–	–	–	–	–	RARα transactivation (RAR-ERcassette) in words (RARα [2]): inactive on RARα; RAR-ERcassette RARα transactivation (%) (RARα [2]; -7 log M): 3%; RAR-ERcassette RARγ transactivation (%) (RARγ [4]; -7 log M): 40%; RAR-ERcassette RARβ transactivation (%) (RARβ [6]; -7 log M): 68%
C=C(c1ccc(C(=O)O)cc1)c1cc2c(cc1C)C(C)(C)CCC2(C)C [LGD1069]	–	–	–	most effective compound tested in this model	–	more effective than the RAR specific molecules	–	–	–	–	–	no effect whatsoever on the growth	no effect whatsoever on the growth	transcriptional power appears higher notably through the RARβ-ERcassette	29	8	1	do not allow one to observe a good transactivation mediated by RAR	5	1	–
Cc1cc2c(cc1C(=O)c1ccc(C(=O)O)cc1)C(C)(C)CCC2(C)C [LGD-CB14499]	17-30%	–	–	causes an inhibition of the AP-1 route	–	–	–	–	–	–	–	–	–	transcriptional power appears higher notably through the RARβ-ERcassette	13	0	0	do not allow one to observe a good transactivation mediated by RAR	1	0	GAL4-RARα activity, % of activity measured for 10^-8 M TTNPB (RARα [10]; Concentration -6 (log M)): 17%; GAL4-RARα activity, % of activity measured for 10^-8 M TTNPB (RARα [10]; Concentration -7 (log M)): 4%; GAL4-RARα activity, % of activity measured for 10^-8 M TTNPB (RARα [10]; Concentration -8 (log M)): 1%; Emax (RARE [1]; Homo sapiens, HeLa, read-out: HRLN transactivation E max %): 30%; Emax at 1 µM (RARE [3]; Homo sapiens, HeLa): 94%; Anti-estrogenic effect (MELN) in words (ERE): inactive; inhibition at 0.1 µM (ERE; [11]): 0%; inhibition at 1 µM (ERE; [11]): 0%; GAL4-RARβ activity, % of activity measured for 10^-8 M TTNPB (RARβ [9]; Concentration -6 (log M)): 9%
